# According to US4156017A, “Pesticides” (Schering Aktiengesellschaft, priority 1977, dated 1979):
# Like-named read-outs stand apart in the source and are kept apart here.
# Tests used:
# cabbage moth eggs = experiment: prevention of hatching of cabbage moth eggs (immersion, evaluation four days after treatment); format: in vivo; settings: Mamestra brassicae, 96 h; for inhibition at 1 % / inhibition at 0.1 %: read-out: prevention of hatching
# Procedure: (§1) The compounds to be used according to the invention were used as aqueous solutions of the salts or as aqueous emulsions of the bases formulated as emulsion concentrates at the desired concentration. The same procedure was followed with the comparison agents trans-2-phenylcyclopropyl aminosulfate and 1-isonicotinyl-2-isopropyl hydrazine phosphate; in the case of isonicotinic acid-2-[2-(benzylcarbamoyl)-ethyl]-hydrazide, the compound was dissolved in acetone and diluted to the desired concentration with water.
# The criterion for the evaluation of action was the percentual prevention of hatching in comparison with untreated eggs.
# monoamino-oxidase = settings: generally known; cited from earlier work
# [1] = test system: Egyptian cotton moth eggs; experiment: prevention of hatching of Egyptian cotton moth eggs (immersion, evaluation four days after treatment); format: in vivo, Spodoptera littoratis (Egyptian cotton moth); settings: 96 h
# Procedure: as §1, with “were” for “were used as”, “or” for “or as”, “baes” for “bases”, “acid-2-[2-(benzylcarbamoyl)-ethyl]hydrazide,” for “acid-2-[2-(benzylcarbamoyl)-ethyl]-hydrazide,”, “diluted with water” for “diluted”, “concentration.” for “concentration with water.”
# The criterion for evaluation of the action was the percentual prevention of batching in comparison with untreated eggs.
# [2] = test system: cabbage moth (Plutella maculipennis); experiment: feed damage on sprayed potted mustard seedlings bearing eggs of the cabbage moth (Plutella maculipennis); format: in vivo; settings: vs untreated plants, 7 days
# Source text: The compounds to be used according to the invention were used as aqueous solutions of the salts or as aqueous emulsions of the bases formulated as emulsion concentrates at the desired concentration. The same procedure was followed for the comparison agents trans-2-phenylcyclopropyl aminosulfate and 1-isonicotinyl-2-isopropyl hydrazine phosphate.
# After the treatment the pots were set up in aerated glass cylinders for seven days.
# The criterion for evaluation of the action was feed damage on the treated plants in comparison with the feed damage on untreated plants.
# [3] = acute oral toxicity, mouse; settings: in vivo, mouse p.o.
# [4] = read-out: prevention of batching
# [5] = substance concentration 1.0%, vs untreated eggs, 4 days
# [6] = substance concentration 1.0 (head "(5)"), vs untreated eggs, 4 days, read-out: prevention of hatching
# [7] = substance concentration 0.1 (head "(5)"), vs untreated eggs, 4 days, read-out: prevention of hatching
# [8] = substance concentration 0.04 (head "(5)"), vs untreated eggs, 4 days, read-out: prevention of hatching
# [9] = substance concentration 0.1%, vs untreated eggs, 4 days
compound,measurement,setting,value
"N[C@@H]1C[C@H]1c1ccccc1.O=S(=O)(O)O (relative stereo) [trans-2-Phenylcyclopropyl aminosulfate, trans-2-phenylcyclopropylamine sulfate, reference compound]",inhibition at 1 %,cabbage moth eggs,0%
same,inhibition of monoamino-oxidase,monoamino-oxidase,inhibitors of monoamino-oxidase
same,inhibition at 1 %,[1]; [4],0%
same,feed damage,[2]; substance concentration 0.1%,100%
"CC(C)NNC(=O)c1ccncc1 [1-isonicotinyl-2-isopropylhydrazine phosphate, reference compound]",inhibition at 1 %,cabbage moth eggs; [5],0%
same,inhibition of monoamino-oxidase,monoamino-oxidase,inhibitors of monoamino-oxidase
same,inhibition at 1 %,[1]; [6],0%
same,feed damage,[2]; substance concentration 0.1%,100%
"C#CCN(C)Cc1ccc(Cl)cc1 [Compound 1, N-(4-chlorobenzyl)-N-methyl-2-propinylamine]",inhibition at 0.06 %,"cabbage moth eggs; substance concentration 0.06%, vs untreated eggs, 4 days",100%
same,inhibition at 0.02 %,"[1]; substance concentration 0.02 (head ""(5)""), vs untreated eggs, 4 days",100%
same,feed damage,[2]; substance concentration 0.05%,0%
"C#CCN(C)Cc1ccc(Cl)cc1 [Compound 2, 4-Chlorobenzyl-methyl-2-propinyl ammonium chloride]",inhibition at 0.1 %,[1]; [7],100%
"C#CCN(C)Cc1ccccc1 [Compound 3, N-Benzyl-N-methyl-2-propinylamine]",inhibition at 0.1 %,cabbage moth eggs,100%
same,inhibition of monoamino-oxidase,monoamino-oxidase,inhibitors of monoamino-oxidase
same,inhibition at 0.04 %,[1]; [4],100%
same,LD50,[3],700 mg/kg
same,feed damage,[2]; substance concentration 0.05%,0%
"C#CCN(C)Cc1ccccc1Cl [Compound 4, N-(2-chlorobenzyl)-N-methyl-2-propinylamine]",inhibition at 0.1 %,[1]; [7],100%
same,LD50,[3],305 mg/kg
"C#CCN(C)Cc1cccc(Cl)c1 [Compound 5, N-(3-chlorobenzyl)-N-methyl-2-propinylamine]",inhibition at 0.1 %,[1]; [7],100%
"C#CCN(C)Cc1ccc(Cl)c(Cl)c1 [Compound 6, N-(3,4-dichlorobenzyl)-N-methyl-2-propinylamine]",inhibition at 0.04 %,[1]; [8],100%
"C#CCN(C)Cc1ccc(Cl)cc1Cl [Compound 7, N-(2,4-dichlorobenzyl)-N-methyl-2-propinylamine]",inhibition at 0.1 %,cabbage moth eggs; [9],100%
same,inhibition at 0.04 %,[1]; [8],100%
"C#CCN(C)Cc1cccc(OC)c1 [Compound 8, N-(3-methoxybenzyl)-N-methyl-2-propinylamine]",inhibition at 0.1 %,[1]; [7],100%
"C#CCN(C)Cc1ccccc1 [Compound 9, Benzyl-methyl-2-propinyl-ammonium-chloride]",inhibition at 0.1 %,[1]; [4],100%
"C#CCN(C)Cc1ccccc1Cl [Compound 10, 2-Chlorobenzyl-methyl-2-propinyl-ammonium chloride]",inhibition at 0.1 %,cabbage moth eggs; [9],100%
same,inhibition at 0.04 %,[1]; [8],80%
"C#CCN(C)Cc1ccc(Cl)cc1Cl [Compound 12, 2,4-Dichlorobenzyl-methyl-2-propinyl-ammonium chloride]",inhibition at 0.1 %,[1]; [7],100%
"C#CCN(C)Cc1cccc(OC)c1 [Compound 13, 3-Methoxybenzyl-methyl-2-propinyl-ammonium chloride]",inhibition at 0.04 %,[1]; [8],70%
"C#CCN(C)Cc1ccc(Cl)c(Cl)c1 [Compound 14, 3,4-Dichlorobenzyl-methyl-2-propinyl-ammonium chloride]",inhibition at 0.08 %,"cabbage moth eggs; substance concentration 0.08%, vs untreated eggs, 4 days",100%
same,feed damage,[2]; substance concentration 0.05%,0%
"O=C(CCNNC(=O)c1ccncc1)NCc1ccccc1 [Isonicotinic acid-2-[2-(benzylcarbamoyl)-ethyl]-hydrazide, reference compound]",inhibition at 1 %,cabbage moth eggs; [5],0%
same,inhibition of monoamino-oxidase,monoamino-oxidase,inhibitors of monoamino-oxidase
same,inhibition at 1 %,[1]; [6],0%
